# Experiments:
# Type in all cases: cell-based
# MRSA ATCC 33592 = assay: MIC, broth microdilution; details: Staphylococcus aureus; MRSA ATCC 33592; read-out: MIC
# Description: (§1) Bacteria were cultured in cation-adjusted Mueller Hinton Broth (for strains in Tables 1 and 4) or Brain Heart Infusion broth (for Enterococcus faecium) or Tryptic Soy Broth (all other bacteria) in a 96-well plate at 37° C. for at least 20 hours. The MIC was classified as the lowest concentration where no visual growth of bacteria was observed. The minimum bactericidal concentration (MBC) was tested by spotting 4 μL from wells with no growth onto Tryptic Soy Agar (TSA) plates. Plates were incubated at 37° C. for at least 18 hours before recording the MBC.
# [1] = tested on: L. monocytogenes ATCC 19115; assay: MIC, broth microdilution; details: Listeria monocytogenes, ATCC19115; L. monocytogenes ATCC 19115; read-out: MIC
# Description: as §1
# S. aureus ATCC 25923 = assay: MIC, broth microdilution; details: Staphylococcus aureus, ATCC25923; S. aureus ATCC 25923; read-out: MIC
# Description: as §1
# [2] = tested on: VRE (E. faecalis) ATCC 51575; assay: MIC, broth microdilution; details: VRE (E. faecalis) ATCC 51575; read-out: MIC
# Description: as §1
# E. faecalis ATCC 29212 = assay: MIC, broth microdilution; details: Enterococcus faecalis, ATCC29212; E. faecalis ATCC 29212; read-out: MIC
# Description: as §1
# S. aureus [3] = assay: Screening of compounds for growth inhibition of S. aureus at 16 μg/mL (OD600); details: compound at 16 μg/mL, 24 hours, compared to DMSO control
# Description: Library compounds and analogs of F6 were dissolved in DMSO at 10 mg/mL. S. aureus was cultured in Mueller Hinton Broth to early exponential phase at which point culture aliquots were incubated with compounds at 16 μg/mL or DMSO in duplicates. The culture was continued at 37° C. for 24 hours. Aliquots (100 μL) of the cultures were dispensed into clear 96 well microtiter plates and OD600 was recorded. Percent normalized OD600 was obtained by using the equation [formula] wherein for a given compound, X is the OD600 of culture with the compound, Xo is that of media only and XT is the OD600 of the DMSO control.
# S. aureus [4] = assay: MIC (Table 5, strain not given); details: Staphylococcus aureus; S. aureus (Table 5)
# Description: as §1
# VRE = assay: MIC (Table 5, strain not given); details: Enterococcus; VRE (Table 5)
# Description: as §1
# E. faecalis = assay: MIC (Table 5, strain not given); details: Enterococcus faecalis; E. faecalis (Table 5)
# Description: as §1
MIC (MRSA ATCC 33592) [µg/mL],MIC (S. aureus [4]) [µg/mL],Structure (SMILES),inhibition of growth of S. aureus (S. aureus [3]),other results
16,–,CN(C)S(=O)(=O)c1ccc(C(=O)Nc2nnc(-c3ccc(F)cc3)o2)cc1 [Compound F3],significantly inhibited the growth,MIC [1]: 32 µg/mL; MIC (S. aureus ATCC 25923): 16 µg/mL; MIC [2]: 32 µg/mL; MIC (E. faecalis ATCC 29212): 32 µg/mL
16,–,O=C(Nc1nnc(-c2cccs2)s1)c1ccc(S(=O)(=O)N2CCCCC2)cc1 [Compound F4],significantly inhibited the growth,MIC [1]: 16 µg/mL; MIC (S. aureus ATCC 25923): 16 µg/mL; MIC [2]: 32 µg/mL; MIC (E. faecalis ATCC 29212): 32 µg/mL
–,–,"CC1CC(C)CN(S(=O)(=O)c2ccc(C(=O)Nc3nnc(C4CCCO4)s3)cc2)C1 (stereo not shown) [Compound F6-2, 4-((3,5-Dimethylpiperidin-1-yl)sulfonyl)-N-(5-(tetrahydrofuran-2-yl)-1,3,4-thiadiazol-2-yl)benzamide]",inactive,–
–,–,"CCOC(=O)c1nnc(NC(=O)c2ccc(S(=O)(=O)N3CC(C)CC(C)C3)cc2)o1 (stereo not shown) [Compound F6-3, Ethyl 5-(4-((3,5-dimethylpiperidin-1-yl)sulfonyl)benzamido)-1,3,4-oxadiazole-2-carboxylate]",inactive,–
–,–,"CC1CC(C)CN(S(=O)(=O)c2ccc(-c3nnc(-c4cccs4)o3)cc2)C1 (stereo not shown) [Compound F6-4, 2-(4-((3,5-Dimethylpiperidin-1-yl)sulfonyl)phenyl)-5-(thiophen-2-yl)-1,3,4-oxadiazole]",not active,–
–,–,"CC1CC(C)CN(S(=O)(=O)c2ccc(C(=O)Nc3nnc(-c4cccs4)[nH]3)cc2)C1 (stereo not shown) [Compound F6-6, 4-((3,5-Dimethylpiperidin-1-yl)sulfonyl)-N-(5-(thiophen-2-yl)-4H-1,2,4-triazol-3-yl)benzamide]",activity was lost,–
–,–,"CC1CC(C)CN(S(=O)(=O)c2ccc(C(=O)Nc3nnc(-c4cccs4)s3)cc2)C1 (stereo not shown) [Compound F6-7, 4-((3,5-Dimethylpiperidin-1-yl)sulfonyl)-N-(5-(thiophen-2-yl)-1,3,4-thiadiazol-2-yl)benzamide]",activity was lost,–
–,–,O=C(Nc1nnc(-c2ccco2)o1)c1ccc(S(=O)(=O)N2CCOCC2)cc1 [Compound F9],not active,–
–,–,CN(CC1CCCO1)S(=O)(=O)c1ccc(C(=O)Nc2nnc(-c3ccccc3)o2)cc1 (stereo not shown) [Compound G9],only slightly inhibited growth,–
32,64,"O=C(Nc1nnc(-c2cccs2)o1)c1ccc(S(=O)(=O)Cc2ccccc2)cc1 [HSGN-104, 4-(benzylsulfonyl)-N-(5-(thiophen-2-yl)-1,3,4-oxadiazol-2-yl)benzamide]",–,MIC (VRE): > 128 µg/mL; MIC (E. faecalis): 64 µg/mL
0.5,1,"C[C@@H]1C[C@H](C)CN(S(=O)(=O)c2ccc(C(=O)Nc3nnc(-c4cccc(Cl)c4)o3)cc2)C1 [HSGN-110, N-(5-(3-chlorophenyl)-1,3,4-oxadiazol-2-yl)-4-(((3S,5R)-3,5-dimethylpiperidin-1-yl)sulfonyl)benzamide]",–,MIC (VRE): 2 µg/mL; MIC (E. faecalis): 1 µg/mL
0.5,2,"C[C@@H]1C[C@H](C)CN(S(=O)(=O)c2ccc(C(=O)Nc3nnc(-c4cccc(F)c4)o3)cc2)C1 [HSGN-111, 4-(((3S,5R)-3,5-dimethylpiperidin-1-yl)sulfonyl)-N-(5-(3-fluorophenyl)-1,3,4-oxadiazol-2-yl)benzamide]",–,MIC (VRE): 2 µg/mL; MIC (E. faecalis): 2 µg/mL
2,4,"COc1cccc(-c2nnc(NC(=O)c3ccc(S(=O)(=O)N4C[C@H](C)C[C@H](C)C4)cc3)o2)c1 [HSGN-112, 4-(((3S,5R)-3,5-dimethylpiperidin-1-yl)sulfonyl)-N-(5-(3-methoxyphenyl)-1,3,4-oxadiazol-2-yl)benzamide]",–,MIC (VRE): 4 µg/mL; MIC (E. faecalis): 8 µg/mL
1,2,"C[C@@H]1C[C@H](C)CN(S(=O)(=O)c2ccc(C(=O)Nc3nnc(-c4cccc(C(F)(F)F)c4)o3)cc2)C1 [HSGN-122, 4-(((3S,5R)-3,5-dimethylpiperidin-1-yl)sulfonyl)-N-(5-(3-(trifluoromethyl)phenyl)-1,3,4-oxadiazol-2-yl)benzamide]",–,MIC (VRE): 8 µg/mL; MIC (E. faecalis): 4 µg/mL
8,16,"Cc1nc(C)c(-c2nnc(NC(=O)c3ccc(S(=O)(=O)N4C[C@H](C)C[C@H](C)C4)cc3)o2)s1 [HSGN-123, 4-(((3S,5R)-3,5-dimethylpiperidin-1-yl)sulfonyl)-N-(5-(2,4-dimethylthiazol-5-yl)-1,3,4-oxadiazol-2-yl)benzamide]",–,MIC (VRE): 64 µg/mL; MIC (E. faecalis): 32 µg/mL
> 64,> 64,"C[C@@H]1C[C@H](C)CN(S(=O)(=O)c2ccc(C(=O)Nc3nnc(-c4cccc(C(=N)NO)c4)o3)cc2)C1 [HSGN-151, 4-(((3S,5R)-3,5-dimethylpiperidin-1-yl)sulfonyl)-N-(5-(3-(N-hydroxycarbamimidoyl)phenyl)-1,3,4-oxadiazol-2-yl)benzamide]",–,–
> 64,> 64,"C[C@@H]1C[C@H](C)CN(S(=O)(=O)c2ccc(C(=O)Nc3ccc4[nH]c(=O)oc4c3)cc2)C1 [HSGN-158, 4-(((3S,5R)-3,5-dimethylpiperidin-1-yl)sulfonyl)-N-(2-oxo-2,3-dihydrobenzo[d]oxazol-6-yl)benzamide]",–,–
> 64,> 64,"O=C1CN(S(=O)(=O)c2ccc(C(=O)Nc3nnc(-c4ccc(C(F)(F)F)cc4)o3)cc2)CCN1 [HSGN-162, 4-((3-oxopiperazin-1-yl)sulfonyl)-N-(5-(4-(trifluoromethyl)phenyl)-1,3,4-oxadiazol-2-yl)benzamide]",–,–
8,8,"C[C@@H]1C[C@H](C)CN(S(=O)(=O)c2cccc(C(=O)Nc3nnc(-c4ccc(C(F)(F)F)cc4)o3)c2)C1 [HSGN-176, 3-(((3S,5R)-3,5-dimethylpiperidin-1-yl)sulfonyl)-N-(5-(4-(trifluoromethyl)phenyl)-1,3,4-oxadiazol-2-yl)benzamide]",–,–
1,2,"Cc1ccc(C(=O)Nc2nnc(-c3ccc(C(F)(F)F)cc3)o2)cc1S(=O)(=O)N1C[C@H](C)C[C@H](C)C1 [HSGN-177, 3-(((3S,5R)-3,5-dimethylpiperidin-1-yl)sulfonyl)-4-methyl-N-(5-(4-(trifluoromethyl)phenyl)-1,3,4-oxadiazol-2-yl)benzamide]",–,–
4,4,"C[C@@H]1C[C@H](C)CN(S(=O)(=O)c2ccc(C(=O)Nc3nnc(-c4ccccc4)o3)cc2)C1 [HSGN-180, 4-(((3S,5R)-3,5-dimethylpiperidin-1-yl)sulfonyl)-N-(5-phenyl-1,3,4-oxadiazol-2-yl)benzamide]",–,–
8,16,"Cc1ccc(-c2nnc(NC(=O)c3ccc(S(=O)(=O)N4C[C@H](C)C[C@H](C)C4)cc3)o2)cc1 [HSGN-181, 4-(((3S,5R)-3,5-dimethylpiperidin-1-yl)sulfonyl)-N-(5-(p-tolyl)-1,3,4-oxadiazol-2-yl)benzamide]",–,–
8,8,"C[C@@H]1C[C@H](C)CN(S(=O)(=O)c2ccc(C(=O)Nc3nnc(-c4ccc(F)cc4F)o3)cc2)C1 [HSGN-182, N-(5-(2,4-difluorophenyl)-1,3,4-oxadiazol-2-yl)-4-(((3S,5R)-3,5-dimethylpiperidin-1-yl)sulfonyl)benzamide]",–,–
0.25,0.25,"Cc1cc(C(=O)Nc2nnc(-c3ccc(C(F)(F)F)cc3)o2)ccc1S(=O)(=O)N1C[C@H](C)C[C@H](C)C1 [HSGN-189, 4-(((3S,5R)-3,5-dimethylpiperidin-1-yl)sulfonyl)-3-methyl-N-(5-(4-(trifluoromethyl)phenyl)-1,3,4-oxadiazol-2-yl)benzamide]",–,–
0.5,1,"Cc1cc(C(=O)Nc2nnc(-c3ccc(C(F)(F)F)cc3)o2)ccc1S(=O)(=O)N1CCC(C)CC1 [HSGN-195, 3-methyl-4-((4-methylpiperidin-1-yl)sulfonyl)-N-(5-(4-(trifluoromethyl)phenyl)-1,3,4-oxadiazol-2-yl)benzamide]",–,–
> 128,–,"COc1cccc(OC)c1C(=O)N[C@@H]1C(=O)N2[C@@H]1SC(C)(C)[C@@H]2C(=O)O [Methicillin, reference compound]",–,MIC (S. aureus ATCC 25923): 2 µg/mL

Structure (SMILES),MIC (MRSA ATCC 33592) [µg/mL],MIC (S. aureus [4]) [µg/mL],inhibition of growth of S. aureus (S. aureus [3]),other results
"CCCCOc1ccc(-c2nnc(NC(=O)c3ccc(S(=O)(=O)N4C[C@H](C)C[C@H](C)C4)cc3)o2)cc1 [HSGN-191, N-(5-(4-butoxyphenyl)-1,3,4-oxadiazol-2-yl)-4-(((3S,5R)-3,5-dimethylpiperidin-1-yl)sulfonyl)benzamide]",16,16,–,–

# Source: patent US11731964B2, “Benzamide antibacterial agents” (Purdue Research Foundation, priority 2018, dated 2023)
